Laboratory results from US20050004011A1, “Compositions and methods for treating bacterial infections with protein-dalbavancin complexes” (priority 2002, published 2005).
“And” between values parts separate entries of the source, which are not always exact repeats. Equal values may be shown once. Read-outs that look alike come from different tables or passages of the source.

Legend:
[1] = test system: skin and soft tissue infections (SSTI); test: Phase II trial in deep skin and soft tissue infections: clinical response; format: in vivo, human
Procedure: (§1) This randomized, controlled study evaluated the safety and efficacy of two dose regimens of dalbavancin.
(§2) There were 62 patients randomized into the study; all received at least one dose of study medication. Four study populations were evaluated for safety and efficacy and were defined as follows: The intent-to-treat (ITT) population included all patients who received at least one dose of study drug (all randomized study subjects).
The effectiveness of the three treatment regimens was determined by assessing the patients' clinical response and the documented or presumed microbiological responses. The primary efficacy endpoint was clinical response at the follow-up visit for the clinically evaluable population. Clinical response, for both EOT and FU visits, was categorized as success (cure or improvement) or failure (including indeterminate results). Patients classified as successes must not have received additional systemic antibacterial treatment for their infection. Failure was defined as persistence of one or more local or systemic signs and symptoms of SSTI such that treatment with new or additional systemic antibacterial agents was required for the SSTI.

[2] = test system: Gram-positive pathogen identified at baseline; test: Phase II SSTI trial: microbiological response; format: in vivo, human; conditions: for Success rate by pathogen: MITT at FU; for Microbiologic success rate: MITT population; for Eradication/presumed eradication rate, all organisms / S. aureus eradication rate: microbiologically-evaluable population at FU
Procedure: as §1, §2
Microbiological outcome, a secondary efficacy variable, was assessed in the subpopulation of patients who had microbiologically documented SSTI (i.e., at least one identified baseline pathogen). A microbiologic response was assessed for each Gram-positive pathogen identified at baseline (i.e., eradication, presumed eradication, persistence, presumed persistence). For patients for whom follow-up cultures were not performed, the microbiologic responses for baseline pathogens were presumed on the basis of the clinical response. Microbiologic response by patient at the EOT and FU visits was graded as success (i.e., all Gram-positive organisms eradicated or presumed eradicated) or failure (i.e., at least one Gram-positive organism persisted or presumed to have persisted, multiple pathogens with partial eradication). At both the EOT and FU visits, colonization and superinfection were assessed. At the FU visit, a patient's bacteriological response could also include recurrence.

[3] = test system: N,N′-diacetyl-Lys-D-Ala-D-Ala; test: ITC of binding to tri-peptide, with and without HSA
[4] = test system: Streptococcus pyogenes; test: Dalbavancin MIC of baseline isolates; format: cell-based
[5] = Rat quantitative tissue distribution (QTD) study; format: in vivo, Sprague-Dawley rats
Procedure: Quantitative tissue distribution studies were conducted to assess the tissue distribution of dalbavancin following a single IV infusion of dalbavancin to male rats.
All samples were analyzed by LSC.

[6] = test system: Group B streptococcus; test: Dalbavancin MIC of baseline isolates; format: cell-based
[7] = Rat mass balance study; format: in vivo, Sprague-Dawley rats
Procedure: Mass balance studies were conducted to determine the excretion pattern of dalbavancin following a single intravenous (IV) infusion of dalbavancin in male rats.
Water and methanol cage washes were also collected.

[8] = ESI-MS of multimers in solution
Procedure: Experiments were performed using an Applied Biosystem API III+mass spectrometer equipped with a TurboIonSpray source, a Triple Quadrupole analyzer, operating in positive ion mode.
The mass spectra were obtained in electrospray positive mode on a Finnigan LCQDeca ion trap instrument previously tuned and calibrated in electrospray mode using Ultramark 1621, caffeine and MRFA (L-metionyl-arginyl-phenilalanyl-arginine).
The mass spectra were obtained in electrospray positive mode on a Finnigan LCQ^Deca ion trap instrument previous tuned and calibrated in electrospray mode using Ultramark 1621, caffeine and MRFA (L-metionyl-arginyl-phenilalanyl-arginine).

[9] = biological target: human albumin (Homo sapiens, UniProt P02768); test: Protein binding by isothermal titration microcalorimetry
human albumin, sequence (P02768 25-609): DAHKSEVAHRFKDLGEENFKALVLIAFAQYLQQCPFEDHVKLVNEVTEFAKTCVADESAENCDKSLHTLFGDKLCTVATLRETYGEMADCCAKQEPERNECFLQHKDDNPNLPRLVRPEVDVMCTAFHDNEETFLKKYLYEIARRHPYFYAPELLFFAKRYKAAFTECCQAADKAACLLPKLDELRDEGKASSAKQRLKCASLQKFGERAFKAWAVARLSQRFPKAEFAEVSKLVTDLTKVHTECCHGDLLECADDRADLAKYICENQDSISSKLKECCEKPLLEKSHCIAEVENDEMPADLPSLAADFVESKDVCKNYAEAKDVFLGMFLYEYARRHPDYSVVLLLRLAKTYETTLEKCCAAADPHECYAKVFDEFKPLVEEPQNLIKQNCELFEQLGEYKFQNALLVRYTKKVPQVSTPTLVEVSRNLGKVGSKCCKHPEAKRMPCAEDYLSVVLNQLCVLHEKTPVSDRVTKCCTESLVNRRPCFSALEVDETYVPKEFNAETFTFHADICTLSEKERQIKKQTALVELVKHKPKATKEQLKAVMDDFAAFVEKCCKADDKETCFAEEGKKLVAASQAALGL
Procedure: (§3) Integrated heat effects, after correction for heats of dilution, were analyzed by non-linear regression using a simple single-site binding model with the standard Microcal ORIGIN software package. Raw data (μcal/sec) for each injection were integrated to give the total heat effect per addition, then divided by amount of injectant to give kcal/mole of injectant. The same integration was applied for control dilution effects, and this was subtracted from the actual titration data. This provided a differential of the binding curve in which the extent of binding is proportional to the total heat liberated (or absorbed). This was then analyzed by non-linear regression methods in terms of various standard binding models.

[10] = biological target: human α-glycoprotein; test: as above; conditions: for apparent binding affinity Ka: pH 7.4; for Calculated percent binding: α-glycoprotein […]10^−5M
Procedure: as §3

[11] = Phase II SSTI trial: adverse events; format: in vivo, human
Procedure: Each patient who received at least one dose of study drug (ITT population) was evaluated for drug safety through monitoring of adverse events (AE), including abnormal clinical laboratory test results and vital signs. AE were rated by the investigator as to their severity (mild, moderate, severe, life-threatening), and by the relationship to the study drug (not related, unlikely related, possibly related, or probably related).

[12] = Safety assessments in healthy subjects; format: in vivo, human; conditions: single 1000 mg IV
Procedure: Adverse events were recorded and assessed for severity and relationship to study drug. Laboratory data (chemistry panel, CBC with differential, urinalysis) were collected and assessed for changes from baseline and out-of-range values. ECG, physical examination, and vital signs were obtained, and changes from baseline were assessed.

[13] = test system: S. aureus; test: Dalbavancin MIC of baseline isolates; format: cell-based; conditions: All S. aureus
[14] = test system: Miscellaneous Streptococcus and nontypeable strains; test: Dalbavancin MIC of baseline isolates; format: cell-based
[15] = MITT isolates of standard of care group
[16] = MITT isolates of two-dose group
[17] = MITT isolates of single-dose group

CN[C@H]1C(=O)N[C@@H]2Cc3ccc(cc3)Oc3cc4cc(c3O[C@@H]3O[C@H](C(=O)O)[C@@H](O)[C@H](O)[C@H]3NC(=O)CCCCCCCCC(C)C)Oc3ccc(cc3Cl)[C@@H](O)[C@@H]3NC(=O)[C@H](NC(=O)[C@@H]4NC(=O)[C@@H](NC2=O)c2cc(cc(O)c2Cl)Oc2cc1ccc2O)c1ccc(O)c(c1)-c1c(O[C@H]2O[C@H](CO)[C@@H](O)[C@H](O)[C@@H]2O)cc(O)cc1[C@@H](C(=O)NCCCN(C)C)NC3=O [Dalbavancin]
Clinical success rate ([1]; MITT at FU, patients with MRSA, single-dose): 50% | Clinical success rate ([1]; MITT at FU, patients with MRSA, two-dose): 80% | Clinical success rate ([1]; subanalysis: deep or complicated SSTI at baseline, single-dose): 58.3% | Clinical success rate ([1]; subanalysis: deep or complicated SSTI at baseline, two-dose): 93.8% | Success rate by pathogen ([2]; All S. aureus, single-dose (1100 mg)): 5/13 (38%) | Success rate by pathogen ([2]; All S. aureus, two-dose (1000/500 mg)): 9/11 (82%) | Microbiologic success rate ([2]; EOT, single-dose (1100 mg)): 5/14 (35.7) % | Microbiologic success rate ([2]; EOT, two-dose (1000/500 mg)): 10/13 (76.9) % | Microbiologic success rate ([2]; FU, single-dose (1100 mg)): 3/14 (21.4) % | Microbiologic success rate ([2]; FU, two-dose (1000/500 mg)): 9/13 (69.2) % | Success rate by pathogen ([2]; Methicillin-sensitive S. aureus, single-dose (1100 mg)): 2/7 (29%) | Success rate by pathogen ([2]; Methicillin-sensitive S. aureus, two-dose (1000/500 mg)): 5/6 (83%) | Success rate by pathogen ([2]; Miscellaneous streptococcus species, single-dose (1100 mg)): 2/3 (67%) | Success rate by pathogen ([2]; Miscellaneous streptococcus species, two-dose (1000/500 mg)): 4/4 (100%) | Success rate by pathogen ([2]; Total organisms, single-dose (1100 mg)): 7/16 (43.8%) | Success rate by pathogen ([2]; Total organisms, two-dose (1000/500 mg)): 14/16 (87.5%) | Eradication/presumed eradication rate, all organisms ([2]; single-dose): 58% | S. aureus eradication rate ([2]; single-dose): 50% | Eradication/presumed eradication rate, all organisms ([2]; two-dose): 92% | S. aureus eradication rate ([2]; two-dose): 90% | weaker binding affinity than in the absence of HSA ([3]; 25° C., plateau at high HSA): 10-12 × | Kass ([3]; T 25 ° C., [HSA] 104 μM): 34900 M⁻¹ | Kass ([3]; T 25 ° C., [HSA] 288 μM): 31000 M⁻¹ | Kass ([3]; T 25 ° C., [HSA] 430 μM): 28400 M⁻¹ | Kass ([3]; T 37 ° C., [HSA] 0 μM): 130000 M⁻¹ and 110000 M⁻¹ | Kass ([3]; T 37 ° C., [HSA] 516 μM): 9568 M⁻¹ | Kd ([3]; read-out: Kdiss (preliminary experiments), absence of serum proteins, depending on temperature): 1 to 10 µM | Kd ([3]; read-out: Kdiss, T 25 ° C., [HSA] 288 μM): 32.3 µM | Kd ([3]; read-out: Kdiss, T 37 ° C., [HSA] 0 μM): 7.69 µM and 9.09 µM | Kd ([3]; read-out: Kdiss, T 37 ° C., [HSA] 516 μM): 105 µM | Dalbavancin MIC [4, 15]: (0.016) mg/L | Dalbavancin MIC [4, 16]: (0.016) mg/L | dose recovered in the bile ([5]; bile duct cannulated rats, over 384 h after the dose): ~11% | Concentrations of radioactivity in the CNS ([5]; healthy animal model): low but detectable | time by which all tissues had quantifiable drug-derived radioactivity ([5]; post-infusion, 20 mg/kg IV): ≤ 12 h | accumulation in tissue, organ or blood cellular component ([5]; rat, in vivo): did not accumulate | skin concentrations of drug-derived radioactivity ([5]; relative to plasma): as high as or higher than in plasma | Blood to plasma ratio of drug-derived radioactivity ([5]; relatively constant over time): < 1 | Dalbavancin MIC [6, 15]: (0.016) mg/L | Dalbavancin MIC [6, 16]: (0.016) mg/L | dose remaining in the carcass ([7]; 70 days post dose): 4.5% | plasma t1/2 ([7]; rat): approximately 1 week | share of excreted radioactivity eliminated in feces ([7]; single IV 20 mg/kg, male rats): ⅓ | share of excreted radioactivity eliminated in urine ([7]; single IV 20 mg/kg, male rats): ⅔ | administered radioactivity eliminated in urine and feces ([7]; within the first week): Approximately half | Multimers in solution (ESI-MS) [8]: presence of dalbavancin multimers | population ratio of multimer to monomer vs concentration ([8]; 20, 40, 60, and 80 μg/mL): increases with increasing concentration | population ratio of multimer to monomer vs ionic strength ([8]; ammonium formate 5, 50, 100 mM, pH 5, increase in buffer concentration): decrease | population ratio of multimer to monomer vs pH ([8]; pH 2.5 to 5.5): increases with increasing pH | binding stoichiometry modeling (drug:protein) [9]: two dalbavancin molecules are bound to one molecule of protein | Calculated percent binding ([9]; antibiotic 500 μM, human serum albumin 6×10^−4 M): 98.0% | N (binding stoichiometry, protein to dalbavancin) ([9]; in all cases (all proteins)): < 1 | apparent binding affinity Ka ([10]; 25° C.): 1.84 (±0.36) ×10^5 M^−1 | apparent binding affinity Ka ([10]; 37° C.): 4.8 (±2.3) ×10^5 M^−1 | Calculated percent binding ([10]; antibiotic 1 μM): 73.0% | Calculated percent binding ([10]; antibiotic 500 μM): 5.9% | Clinically significant hepatotoxicity or nephrotoxicity ([11]; both dalbavancin regimens): no evidence | Tolerability ([11]; both doses): well tolerated | Subject deaths or serious adverse events [12]: No subject deaths or serious adverse events | Tolerability [12]: well-tolerated | Volunteers reporting AEs possibly related to study medication ([12]; six subjects): Three | Dalbavancin MIC [13, 17]: (0.12) mg/L | Dalbavancin MIC range [13, 15]: (0.016-0.25) mg/L | Dalbavancin MIC [13, 16]: (0.12) mg/L | Dalbavancin MIC [14, 17]: (0.016) mg/L | Dalbavancin MIC [14, 15]: (0.016) mg/L | Dalbavancin MIC [14, 16]: (0.016) mg/L
